System: 966289-007-R4-J1-PDC complex spheroid viability
Test: Anticancer human tumor 966289-007-R4-J1-PDC patient-derived pancreatic adenocarcinoma cell line growth inhibition [GQUAD]
Conditions: for IC50: curve of first compound; for viability, T/C: stronger effect = lower value
Method in brief: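 Multi-cell-type spheroids of tumor cells with HUVEC and mesenchymal stem cells, treated with drug combinations. Concentrations descend in half-log steps from near clinical Cmax, or from 10 microM where Cmax is unknown; viability read-out.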

[1] = second compound 0.0316 µM, first compound 0.0316 µM
[2] = second compound 0.0316 µM, first compound 0.1 µM
[3] = second compound 0.0316 µM, first compound 0.316 µM
[4] = second compound 0.0316 µM, first compound 1 µM
[5] = second compound 0.0316 µM, first compound 3.16 µM
[6] = second compound 0.0316 µM, first compound 10 µM
[7] = second compound 0.1 µM, first compound 0.0316 µM
[8] = second compound 0.1 µM, first compound 0.1 µM
[9] = second compound 0.1 µM, first compound 0.316 µM
[10] = second compound 0.1 µM, first compound 1 µM
[11] = second compound 0.1 µM, first compound 3.16 µM
[12] = second compound 0.1 µM, first compound 10 µM
[13] = second compound 0.316 µM, first compound 0.0316 µM
[14] = second compound 0.316 µM, first compound 0.1 µM
[15] = second compound 0.316 µM, first compound 0.316 µM
[16] = second compound 0.316 µM, first compound 1 µM
[17] = second compound 0.316 µM, first compound 3.16 µM
[18] = second compound 0.316 µM, first compound 10 µM
[19] = second compound 1 µM, first compound 0.0316 µM
[20] = second compound 1 µM, first compound 0.1 µM
[21] = second compound 1 µM, first compound 0.316 µM
[22] = second compound 1 µM, first compound 1 µM
[23] = second compound 1 µM, first compound 3.16 µM
[24] = second compound 1 µM, first compound 10 µM
[25] = second compound 3.16 µM, first compound 0.0316 µM
[26] = second compound 3.16 µM, first compound 0.1 µM
[27] = second compound 3.16 µM, first compound 0.316 µM
[28] = second compound 3.16 µM, first compound 1 µM
[29] = second compound 3.16 µM, first compound 3.16 µM
[30] = second compound 3.16 µM, first compound 10 µM
[31] = second compound 10 µM, first compound 0.0316 µM
[32] = second compound 10 µM, first compound 0.1 µM
[33] = second compound 10 µM, first compound 0.316 µM
[34] = second compound 10 µM, first compound 1 µM
[35] = second compound 10 µM, first compound 3.16 µM
[36] = second compound 10 µM, first compound 10 µM
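Also: spheroids exposed to the agents for seven days before readout.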
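For viability, T/C in this document: percent viability relative to DMSO vehicle control wells taken as 100%.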

## CC1COCCN1c1cc(C2(S(C)(=N)=O)CC2)nc(-c2ccnc3[nH]ccc23)n1 (stereo not drawn) + Cc1[nH]c2ccc(F)cc2c1-c1nc2c3cccnc3c3ncccc3c2[nH]1
Second compound 0.0316 µM
  IC50: 2.5 µM
Second compound 0.1 µM
  IC50: 3.03 µM
Second compound 0.316 µM
  IC50: 3.13 µM
Second compound 1 µM
  IC50: 2.87 µM
Second compound 3.16 µM
  IC50: 1.75 µM
Second compound 10 µM
  IC50: 1.45 µM
[1]
  viability, T/C: 104%
[2]
  viability, T/C: 91.8%
[3]
  viability, T/C: 109%
[4]
  viability, T/C: 90.9%
[5]
  viability, T/C: 39.4%
[6]
  viability, T/C: 7.57%
[7]
  viability, T/C: 106%
[8]
  viability, T/C: 104%
[9]
  viability, T/C: 105%
[10]
  viability, T/C: 96.3%
[11]
  viability, T/C: 48.2%
[12]
  viability, T/C: 8.79%
[13]
  viability, T/C: 99.8%
[14]
  viability, T/C: 100%
[15]
  viability, T/C: 106%
[16]
  viability, T/C: 101%
[17]
  viability, T/C: 49.6%
[18]
  viability, T/C: 6.54%
[19]
  viability, T/C: 99.2%
[20]
  viability, T/C: 103%
[21]
  viability, T/C: 108%
[22]
  viability, T/C: 90.6%
[23]
  viability, T/C: 46.4%
[24]
  viability, T/C: 7.68%
[25]
  viability, T/C: 101%
[26]
  viability, T/C: 106%
[27]
  viability, T/C: 107%
[28]
  viability, T/C: 77.5%
[29]
  viability, T/C: 20.6%
[30]
  viability, T/C: 5.11%
[31]
  viability, T/C: 101%
[32]
  viability, T/C: 100%
[33]
  viability, T/C: 97.7%
[34]
  viability, T/C: 69.1%
[35]
  viability, T/C: 9.9%
[36]
  viability, T/C: 3.37%

## COc1ncnc(C2CC2)c1-c1ncc2cnn(Cc3ccc(-c4nc(C(F)(F)F)cn4C(C)C)cc3)c2n1 + CN(C)c1ccc(Nc2c3ccc(NC(=O)CCN4CCCC4)cc3nc3cc(NC(=O)CCN4CCCC4)ccc23)cc1
Second compound 0.0316 µM
  IC50: > 10 µM
Second compound 0.1 µM
  IC50: > 10 µM
Second compound 0.316 µM
  IC50: > 10 µM
Second compound 1 µM
  IC50: > 10 µM
Second compound 3.16 µM
  IC50: > 10 µM
Second compound 10 µM
  IC50: 5.62 µM
[1]
  viability, T/C: 103%
[2]
  viability, T/C: 97%
[3]
  viability, T/C: 108%
[4]
  viability, T/C: 98.1%
[5]
  viability, T/C: 100%
[6]
  viability, T/C: 109%
[7]
  viability, T/C: 103%
[8]
  viability, T/C: 100%
[9]
  viability, T/C: 105%
[10]
  viability, T/C: 105%
[11]
  viability, T/C: 92.7%
[12]
  viability, T/C: 107%
[13]
  viability, T/C: 103%
[14]
  viability, T/C: 102%
[15]
  viability, T/C: 105%
[16]
  viability, T/C: 100%
[17]
  viability, T/C: 92%
[18]
  viability, T/C: 106%
[19]
  viability, T/C: 93.9%
[20]
  viability, T/C: 99.5%
[21]
  viability, T/C: 104%
[22]
  viability, T/C: 92.7%
[23]
  viability, T/C: 98.3%
[24]
  viability, T/C: 101%
[25]
  viability, T/C: 102%
[26]
  viability, T/C: 98.2%
[27]
  viability, T/C: 106%
[28]
  viability, T/C: 100%
[29]
  viability, T/C: 106%
[30]
  viability, T/C: 110%
[31]
  viability, T/C: 102%
[32]
  viability, T/C: 103%
[33]
  viability, T/C: 109%
[34]
  viability, T/C: 107%
[35]
  viability, T/C: 91.7%
[36]
  viability, T/C: 8.22%

## Cc1cccc(N(C)C(=O)C2C(O)CCN2c2nc(C)cc(C(F)(F)F)c2C#N)c1 (stereo not drawn) + Cc1cnc(CNC(=O)c2c(=O)c3ccc(N4CCCN(C)CC4)nc3n3c2sc2ccccc23)cn1
Second compound 0.0316 µM
  IC50: > 10 µM
Second compound 0.1 µM
  IC50: < 0.0316 µM
Second compound 0.316 µM
  IC50: < 0.0316 µM
Second compound 1 µM
  IC50: < 0.0316 µM
Second compound 3.16 µM
  IC50: < 0.0316 µM
Second compound 10 µM
  IC50: < 0.0316 µM
[1]
  viability, T/C: 111%
[2]
  viability, T/C: 102%
[3]
  viability, T/C: 103%
[4]
  viability, T/C: 102%
[5]
  viability, T/C: 110%
[6]
  viability, T/C: 106%
[7]
  viability, T/C: 40.1%
[8]
  viability, T/C: 30.9%
[9]
  viability, T/C: 36.3%
[10]
  viability, T/C: 34.9%
[11]
  viability, T/C: 36.2%
[12]
  viability, T/C: 40.1%
[13]
  viability, T/C: 12.1%
[14]
  viability, T/C: 11.4%
[15]
  viability, T/C: 10.2%
[16]
  viability, T/C: 13.8%
[17]
  viability, T/C: 12.7%
[18]
  viability, T/C: 13.3%
[19]
  viability, T/C: 6.47%
[20]
  viability, T/C: 6.97%
[21]
  viability, T/C: 7.01%
[22]
  viability, T/C: 6.54%
[23]
  viability, T/C: 6.3%
[24]
  viability, T/C: 7.05%
[25]
  viability, T/C: 5.3%
[26]
  viability, T/C: 4.93%
[27]
  viability, T/C: 4.77%
[28]
  viability, T/C: 5.55%
[29]
  viability, T/C: 5.79%
[30]
  viability, T/C: 5.35%
[31]
  viability, T/C: 0.13%
[32]
  viability, T/C: 0.18%
[33]
  viability, T/C: 0.17%
[34]
  viability, T/C: 0.17%
[35]
  viability, T/C: 0.51%
[36]
  viability, T/C: 0.38%

## CCCS(=O)(=O)Nc1ccc(F)c(C(=O)c2c[nH]c3ncc(-c4ccc(Cl)cc4)cc23)c1F + Cc1[nH]c2ccc(F)cc2c1-c1nc2c3cccnc3c3ncccc3c2[nH]1
Second compound 0.0316 µM
  IC50: 9.39 µM
Second compound 0.1 µM
  IC50: 8.56 µM
Second compound 0.316 µM
  IC50: 8.4 µM
Second compound 1 µM
  IC50: 8.67 µM
Second compound 3.16 µM
  IC50: 7.25 µM
Second compound 10 µM
  IC50: 7.83 µM
[1]
  viability, T/C: 111%
[2]
  viability, T/C: 105%
[3]
  viability, T/C: 116%
[4]
  viability, T/C: 113%
[5]
  viability, T/C: 113%
[6]
  viability, T/C: 46.3%
[7]
  viability, T/C: 101%
[8]
  viability, T/C: 110%
[9]
  viability, T/C: 113%
[10]
  viability, T/C: 112%
[11]
  viability, T/C: 111%
[12]
  viability, T/C: 40.5%
[13]
  viability, T/C: 101%
[14]
  viability, T/C: 108%
[15]
  viability, T/C: 110%
[16]
  viability, T/C: 114%
[17]
  viability, T/C: 112%
[18]
  viability, T/C: 39.3%
[19]
  viability, T/C: 97.6%
[20]
  viability, T/C: 112%
[21]
  viability, T/C: 115%
[22]
  viability, T/C: 114%
[23]
  viability, T/C: 116%
[24]
  viability, T/C: 41.4%
[25]
  viability, T/C: 110%
[26]
  viability, T/C: 114%
[27]
  viability, T/C: 115%
[28]
  viability, T/C: 110%
[29]
  viability, T/C: 108%
[30]
  viability, T/C: 27.6%
[31]
  viability, T/C: 104%
[32]
  viability, T/C: 111%
[33]
  viability, T/C: 115%
[34]
  viability, T/C: 112%
[35]
  viability, T/C: 112%
[36]
  viability, T/C: 33.5%

Source: PubChem BioAssay AID2060488 (Molecular Pharmacology Branch, DTP, NCI, 2025)
